According to the supplement of paper PMC10307832:

Key:
Experiment in all cases: relative viability (nuclei count vs DMSO), 5 days (fraction); higher = more cells survive
[1] = compound: C1=CC(=CC=C1C2=CC(=C(S2)NC(=O)N)C(=O)N)F [TPCA-1] + Cc1cc(Nc2cc(N3CCN(C)CC3)nc(Sc3ccc(NC(=O)C4CC4)cc3)n2)n[nH]1 [Tozasertib] (partner 0.1 µM)
In short: (§1)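 Nuclei were stained with Hoechst during a one-step fixation (final 0.05% Triton X-100, 1% formaldehyde, 1 ug/ml Hoechst) carried out 5 days after dosing, then counted on 4× images. The cells, lung cancer lines in 1536-well plates, had been dosed by pin tool the day after seeding with one drug alone or a fixed anchor-drug dose plus five library-drug doses (not always all listed) in √10 steps. Relative viability is the nuclei count in treated wells divided by that in vehicle wells, and each value is the median of duplicate plates.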

[2] = compound: C[C@]12O[C@H](C[C@]1(O)CO)n1c3ccccc3c3c4c(c5c6ccccc6n2c5c31)CNC4=O [Lestaurtinib] + Nc1nc2[nH]cc(CCc3ccc(C(=O)N[C@@H](CCC(=O)O)C(=O)O)cc3)c2c(=O)[nH]1 [Pemetrexed] (partner 0.2 µM)
In short: as §1

[3] = compound: C1=CC(=CC=C1C2=CC(=C(S2)NC(=O)N)C(=O)N)F [TPCA-1] + CC(C)C[C@H](NC(=O)[C@H](Cc1ccccc1)NC(=O)c1cnccn1)B(O)O [Bortezomib] (partner 0.002 µM)
In short: as §1

[4] = compound: C[C@]12O[C@H](C[C@]1(O)CO)n1c3ccccc3c3c4c(c5c6ccccc6n2c5c31)CNC4=O [Lestaurtinib] + CC1(C)CCC(c2ccc(Cl)cc2)=C(CN2CCN(c3ccc(C(=O)NS(=O)(=O)c4ccc(N[C@H](CCN5CCOCC5)CSc5ccccc5)c(S(=O)(=O)C(F)(F)F)c4)cc3)CC2)C1 [Navitoclax] (partner 0.5 µM)
In short: as §1

| Cell Line | relative viability ([1]; first compound 0.04 µM) | relative viability ([1]; first compound 0.1265 µM) | relative viability ([1]; first compound 0.4 µM) | relative viability ([1]; first compound 1.265 µM) | relative viability ([1]; first compound 4 µM) | relative viability ([2]; first compound 0.005 µM) | relative viability ([2]; first compound 0.01581 µM) | relative viability ([2]; first compound 0.05 µM) | relative viability ([2]; first compound 0.1581 µM) | relative viability ([2]; first compound 0.5 µM) | relative viability ([3]; first compound 0.04 µM) | relative viability ([3]; first compound 0.1265 µM) | relative viability ([3]; first compound 0.4 µM) | relative viability ([3]; first compound 1.265 µM) | relative viability ([3]; first compound 4 µM) | relative viability ([4]; first compound 0.005 µM) | relative viability ([4]; first compound 0.01581 µM) | relative viability ([4]; first compound 0.05 µM) | relative viability ([4]; first compound 0.1581 µM) | relative viability ([4]; first compound 0.5 µM) |
| --- | --- | --- | --- | --- | --- | --- | --- | --- | --- | --- | --- | --- | --- | --- | --- | --- | --- | --- | --- | --- |
| NCI-H358 | 0.126 | 0.113 | 0.108 | 0.105 | 0.0839 | 0.177 | 0.164 | 0.174 | 0.136 | 0.158 | – | – | – | – | – | – | – | – | – | – |
| H3255 | 0.612 | 0.6 | 0.623 | 0.58 | 1.03 | 0.578 | 0.623 | 0.493 | 0.563 | 0.428 | 0.872 | 0.758 | 0.701 | 0.595 | 0.691 | 0.44 | 0.437 | 0.327 | 0.279 | 0.182 |
| NCI-H2228 | 0.299 | 0.178 | 0.285 | 0.232 | 0.108 | 0.381 | 0.383 | 0.299 | 0.147 | 0.148 | 1.01 | 0.891 | 0.916 | 1.12 | 0.6 | 0.985 | 1.29 | 0.839 | 0.554 | 0.162 |
| CAL-12T | 0.327 | 0.299 | 0.257 | 0.236 | 0.206 | 1.13 | 1.11 | 1.17 | 0.834 | 0.635 | 1.07 | 0.941 | 1.03 | 0.767 | 0.607 | 1.25 | 1.45 | 1.08 | 1.2 | 0.686 |
| A-427 | 0.231 | 0.211 | 0.192 | 0.161 | 0.147 | 0.865 | 1.14 | 0.925 | 0.503 | 0.275 | 1.05 | 0.981 | 1.08 | 0.976 | 1.07 | 1.04 | 0.858 | 0.914 | 0.455 | 0.329 |
| HARA | 0.136 | 0.118 | 0.0913 | 0.0917 | 0.0916 | 0.265 | 0.246 | 0.203 | 0.171 | 0.196 | 1.08 | 1.13 | 1.14 | 1.03 | 1.07 | 1.15 | 1.18 | 1.21 | 1.07 | 0.196 |
| NCI-H1793 | 0.33 | – | 0.307 | 0.235 | 0.165 | 0.809 | 0.911 | 0.544 | 0.692 | 0.541 | – | – | – | – | – | 0.504 | 0.745 | 0.393 | 0.334 | 0.232 |
| NCI-H1623 | 0.408 | 0.402 | 0.454 | 0.437 | 0.37 | – | – | – | – | – | – | – | – | – | – | – | – | – | – | – |
| NCI-H2009 | 0.8 | 0.686 | 0.834 | 0.649 | 0.545 | 1.07 | 1.06 | 0.998 | 0.934 | 0.835 | 1.25 | 0.921 | 1.07 | 0.516 | 0.536 | 1.16 | 1.25 | 1.06 | 1.3 | 0.22 |
